# Reference: patent publication US12552806B2, “Androgen receptor regulation by small molecule enantiomers” (University of Southern California, priority 2020, dated 2026)
# Substitutions are numbered along the chain they refer to. Entries after “also recorded” stand apart in the source; their conditions may differ. Read-outs that look alike come from different tables or passages of the source.
# Key:
# [1] = test system: AR-regulated genes in VCaP cells; assay: RT-qPCR array of AR target genes in VCaP cells; assay type: cell-based; conditions: 82 AR target genes, vs NTC and DHT
# Description: To test for corresponding transcriptional activation, we performed assays in cells expressing ARE-luciferase. […] Next, we examined gene expression in VCaP cells, a hormone-responsive but independent model of CRPC highly expressing AR.
# RT-qPCR Array. RNA was isolated using the Illustra RNAspin Mini Kit (GE Healthcare). RNA was transcribed to cDNA using RT2 First Strand Kit (Qiagen). RT-qPCR was performed using Biorad CFX Connect on a RT2 Profiler PCR Array Human Androgen Receptor Signaling Targets (Qiagen).
# [2] = Microsome stability assay; assay type: in vitro ADME, human; conditions: for toxic metabolite BMS-501949 detected in LCMS / active metabolite detected in LCMS: 10 μM drug; for toxic metabolite BMS-501949 detected in LCMS: 8 h incubation, o-fluoro-BMS-501949 for EITM-1707; for active metabolite detected in LCMS: Unnamed metabolite (predicted active) for EITM compounds, BMS-570511 for BMS-641988, 8 h; for half-life at 1 μM / microsomal CLint at 1 μM: human, pooled human liver microsomes, pH 7.4, liver microsomes; for half-life at 1 μM: 1 μM drug, read-out: T½; for microsomal CLint at 1 μM: read-out: rate of intrinsic clearance
# Description: Microsome stability assays. In vitro metabolism was determined as described previously. Specifically, to measure metabolism of parent compounds, the higher throughput protocol was applied, in which 0.5 mg/ml pooled human liver microsomes (Sigma) were mixed with 1 μM drugs and phosphate buffer (0.1 M, pH 7.4) in 96-well plates. Enzymatic reactions were started by adding 1 mM NADPH (Sigma Aldrich) followed by incubation at 37° C. Fractions were quenched by transfer to ice-cold acetonitrile after the indicated incubation times. Samples were analyzed using liquid chromatography-mass spectrometry (LC/MS-MS). Rates of intrinsic clearance were determined from the amount of the parent compound consumed per min per mg of microsomal protein as described previously. To analyze accumulating metabolites, the basic protocol was used, and microsomes were incubated with 10 μM drugs for 8 h.
# GFP-AR = target: T1, GFP-AR (Homo sapiens, UniProt P10275); assay: Confocal microscopy of PC3 GFP-AR cells (nuclear hyperspeckling); assay type: cell-based; conditions: 10 μM enantiomer 180 min, 1 nM R1881 90 min
# T1 construct: expressed in transfected cells; host or cells: PC3
# T1 sequence (P10275 1-920): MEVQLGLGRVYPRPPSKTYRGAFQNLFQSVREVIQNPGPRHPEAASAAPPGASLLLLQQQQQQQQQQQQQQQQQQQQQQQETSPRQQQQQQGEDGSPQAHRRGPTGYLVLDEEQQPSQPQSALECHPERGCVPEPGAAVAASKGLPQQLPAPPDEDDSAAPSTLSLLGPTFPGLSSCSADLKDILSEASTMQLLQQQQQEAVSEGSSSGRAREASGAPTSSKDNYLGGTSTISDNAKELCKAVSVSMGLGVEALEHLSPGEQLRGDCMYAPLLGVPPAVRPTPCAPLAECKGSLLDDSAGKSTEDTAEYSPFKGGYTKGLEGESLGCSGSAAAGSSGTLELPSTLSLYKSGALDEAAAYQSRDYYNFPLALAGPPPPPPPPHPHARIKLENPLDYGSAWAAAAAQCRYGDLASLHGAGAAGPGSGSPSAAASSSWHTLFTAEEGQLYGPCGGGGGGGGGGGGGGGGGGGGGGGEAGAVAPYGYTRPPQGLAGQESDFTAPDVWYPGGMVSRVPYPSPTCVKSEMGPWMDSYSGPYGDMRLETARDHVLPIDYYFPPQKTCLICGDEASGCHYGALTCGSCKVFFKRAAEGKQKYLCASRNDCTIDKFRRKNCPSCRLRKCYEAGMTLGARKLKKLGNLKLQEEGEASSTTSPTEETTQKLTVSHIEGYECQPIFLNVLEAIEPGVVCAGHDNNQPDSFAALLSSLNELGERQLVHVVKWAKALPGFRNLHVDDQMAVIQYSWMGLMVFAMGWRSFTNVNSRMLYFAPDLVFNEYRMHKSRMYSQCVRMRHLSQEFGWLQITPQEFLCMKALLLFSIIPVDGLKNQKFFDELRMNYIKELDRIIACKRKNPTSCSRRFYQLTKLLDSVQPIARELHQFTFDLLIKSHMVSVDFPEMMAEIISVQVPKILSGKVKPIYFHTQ
# Description: Initial compound testing was performed with PC3 GFP-AR cells and confocal microscopy. First, we tested purified BMS enantiomers (FIG. 6A).
# (§1) PC3 and VCaP cell lines were obtained from ATCC and cultured as recommended. Generation and culture of PC3 GFP-AR cells were described previously (14). ARE-luciferase cells were generated using Cignal Lenti AR Reporter (Qiagen). Cell lines were authenticated using NIST-approved short tandem repeat DNA profiling and tested negative for mycoplasma. Drug treatments were conducted after overnight culture in phenol red-free media supplemented with charcoal:dextran stripped FBS.
# Confocal Microscopy. PC3 GFP-AR cells were seeded and stained overnight with SiR-DNA ([…]).
# LNCaP cells = assay: LNCaP cell viability assay (CellTiter-Glo); assay type: cell-based; conditions: 1 and 10 μM drug + 60 pM R1881, 5 days
# Description: LNCaP cell viability assay. Cells were seeded into 96-well fibronectin coated (1 ug/cm^2) plates (CellCarrier, PerkinElmer) at a density of 5,000 cells/well. […] Drug-treated cells were lysed with CellTiter-Glo 3D Cell Viability Assay (Promega) and transferred to white 96-well plates (Corning). Luminescence was measured utilizing GloMax 96 Microplate Luminometer (Promega). Analysis was conducted in the R statistical environment (v 3.6.0). […] Visualizations were facilitated by the ggplot2 package (v3.2.1), with standard error (S.E.) shown where appropriate.
# AR T878A = target: T2, AR T878A (Homo sapiens, UniProt P10275, T878A); assay: cell-based; assay type: cell-based
# T2 construct: LNCaP cells expressing AR T878A; endogenous in cells; host or cells: LNCaP-luc (LNCaP stably carrying the Cignal Lenti AR Reporter)
# T2 sequence (P10275 1-920 T878A): T1 sequence (P10275 1-920) with T878A
# Source text: We generated a LNCaP cell line stably expressing luciferase controlled by androgen response elements (ARE-luciferase).
# Cell Culture and Treatments. The LNCaP cell line were obtained from ATCC, cultured in RPMI1640 (Corning) supplemented with 10% heat-inactivated GemCell bovine serum (Gemini Bio-Products) and Penicillin-Streptomycin (Gemini Bio-Products). Cell lines stably expressing ARE-luciferase (LNCaP-luc) was generated using Cignal Lenti AR Reporter (Qiagen) and was continuously cultured with 500 ng/mL Puromycin (Gibco) for positive selection. Cells were maintained at 37° C. in a humidified incubator with 5% carbon dioxide. All cell lines were authenticated using NIST approved short tandem repeat (STR) DNA profiling performed by the University of Arizona Genetics Core and routinely tested negative for mycoplasma.
# Luciferase assay. LNCaP-luc cells were seeded in clear flat bottom white polystyrene 96-well plates (Corning) at a density of 12,000 cells/well. […] Dose-response curves were fit using the delta method and t-distribution (n=1). Compounds are tested up to 10 μM.
# VCaP cells = assay: VCaP viability assay (CellTiter-Glo); assay type: cell-based
# Description: as §1
# Luminometer Assays. For ARE-luciferase, luciferase substrate was added to lysed cells after 24-h treatment. For viability, cells were lysed with CellTiter-Glo 3D Cell Viability Assay (Promega) after 6 d of treatment. Measurements were performed in 96-well plates (Corning) using a GloMax 96 Microplate Luminometer (Promega).
Compound,"AR-dependent gene expression, in words [1]",toxic metabolite BMS-501949 detected in LCMS [2],active metabolite detected in LCMS [2],half-life at 1 μM [2],microsomal CLint at 1 μM [2],"nuclear hyperspeckling, in words (GFP-AR)","LNCaP proliferation / viable cells, in words (LNCaP cells)","AR agonism / antagonism in LNCaP ARE-luciferase, in words (AR T878A)",EC50 (AR T878A),ED50 (AR T878A),Emax (AR T878A),"R1881-induced growth, in words (VCaP cells; 10 μM drug + 1 nM R1881, 6-d treatment)","(S)-enantiomer fraction that halved the drug effect, cell viability (VCaP cells; 10 μM mixture + 1 nM R1881, 6 d, 95% CI (0.2%, 0.4%))","(S)-enantiomer fraction that rescued the proliferation phenotype, cell viability (VCaP cells; 10 μM mixture + 1 nM R1881, 6 d, 95% CI (0.7%, 3.7%))","IC50 (VCaP cells; Homo sapiens, VCaP)",toxic metabolite BMS-501949 detected in LCMS ([2]; listed as (R)-EITM-1702),Emax (AR T878A; LNCaP)
"CC(O)c1cc(C(=O)N[C@H]2C[C@]3(C)O[C@@]2(C)[C@H]2C(=O)N(c4ccc(C#N)c(C(F)(F)F)c4F)C(=O)[C@H]23)n[nH]1 (stereo partly drawn) [(S)-EITM-1707, N-((3aS,4S,5S,7S,7aR)-2-(4-cyano-2-fluoro (trifluoromethyl)phenyl)-4,7-dimethyl-1,3-dioxooctahydro-1H-4,7-epoxyisoindol-5-yl)-5-(1-hydroxyethyl)-1H-pyrazole-3-carboxamide]","rescued the castration phenotype, mimicking DHT",,,,,,,,,,,,,,,,
"CCS(=O)(=O)N[C@@H]1C[C@@]2(C)O[C@]1(C)[C@@H]1C(=O)N(c3ccc(C#N)c(C(F)(F)F)c3)C(=O)[C@@H]12 [BMS-641988, N-((3aR,4R,5R,7R,7aS)-2-(4-cyano-3-(trifluoromethyl)phenyl)-4,7-dimethyl-1,3-dioxooctahydro-1H-4,7-epoxyisoindol-5-yl)ethanesulfonamide, reference compound]",,accumulated and yes,yes,86.4 min,10.1 µL/min/mg,inhibited R1881-induced hyperspeckling,promoted proliferation,potent agonist in LNCaP cells; also recorded: induced ARE-luciferase without addition of R1881,94 ± 22 nM,agonist,agonist,,,,,,
"CCS(=O)(=O)N[C@H]1C[C@]2(C)O[C@@]1(C)[C@H]1C(=O)N(c3ccc(C#N)c(C(F)(F)F)c3)C(=O)[C@H]12 [(S)-BMS, N-((3aS,4S,5S,7S,7aR)-2-(4-cyano-3-(trifluoromethyl)phenyl)-4,7-dimethyl-1,3-dioxooctahydro-1H-4,7-epoxyisoindol-5-yl)ethanesulfonamide]",,,,,,"caused substantial hyperspeckling, comparable to that of R1881",,,,,,,,,,,
"C[C@]12O[C@](C)(C[C@H]1NC(=O)c1cc[nH]n1)[C@H]1C(=O)N(c3ccc(C#N)c(C(F)(F)F)c3)C(=O)[C@H]12 [EITM-1702, N-((3aR,4R,5R,7R,7aS)-2-(4-cyano-3-(trifluoromethyl)phenyl)-4,7-dimethyl-1,3-dioxooctahydro-1H-4,7-epoxyisoindol-5-yl)-1H-pyrazole-3-carboxamide]",,not detected,yes,56.7 min,15.3 µL/min/mg,,almost phenocopying castrate conditions; also recorded: inhibited the growth of LNCaP prostate cancer cells,robust antagonistic activities without notable agonism,570 nM,,,visibly suppressed R1881-induced growth,0.3%,2.2%,540 nM,no,8%
